From patent US20100029702A1, “Method For Identification of Compound Having Anti-Anxiety Effect” (priority 2006, published 2010)

Experiments:
[1] = tested on: CHO-K1 cell strain; assay: Changes in intracellular Ca2+ concentration in CHO-K1 host cell not transfected (negative control); assay type: cell-based, Chinese hamster; conditions: CHO-K1 not transfected; peptide 1 nM (Example 5)
Description: (§1) The specific method for measuring changes in the intracellular Ca^2+ concentration in the HA-ph01207#10-6 cell strain induced by CCK-8S (SEQ ID NO: 14) and the results are described below. The HA-ph01207#10-6 cell strain was seeded on a 96-well plate (a plate with a black wall and a transparent bottom) at a cell count of 2×10^4/100 μL medium/well and cultured at 37° C. in the presence of 5% CO2. As a medium, DMEM/F12 (Gibco) containing 10% fetal calf serum (Moregate) was used. On the following day, 50 μL of the medium was removed from each well, 50 μL of a loading buffer was added to each well, and the mixture was reacted at room temperature for 1.5 h, so that a fluorescent dye contained in the loading buffer should be taken up into the cell. The loading buffer was prepared by dissolving component A of the FLIPR Calcium 3 Assay Kit (Molecular Device) in a solution obtained by adding 0.1 mL of 500 mM probenecid (Sigma) to 9.9 mL of component B. After reaction, changes over time in the fluorescence intensity in each well after addition of CCK-8S (Peptide Institute, Inc.) were measured using the FLEX station (Molecular Device). Furthermore, similar measurement was performed for CCK-8NS (Peptide Institute, Inc.) and CCK-4 (Peptide Institute, Inc.). 0.52 mg of CCK-8S (SEQ ID NO: 14) was dissolved in 4.5 mL of 1% NaHCO3 (Wako) to prepare a solution having 0.1 mM concentration. 0.53 mg of CCK-8NS was dissolved in 0.50 mL of dimethyl sulfoxide (DMSO, Sigma), and then 4.50 mL of redistilled water H2O was added to prepare a solution having 0.1 mM concentration. 0.54 mg of CCK-4 was dissolved in 0.46 mL of DMSO, 4.09 mL of redistilled water was added to prepare a solution having 0.2 mM concentration. CCK-8S (SEQ ID NO: 14), CCK-8NS, and CCK-4 were diluted in phosphate-buffered physiological saline (PBS) to prepare 5 nM solutions, and 25 μL each was added (final concentration 1 nM) to perform measurement. As a positive control for including an increase in the intracellular Ca^2+ concentration, A23187 (Calbiochem) was used at a final concentration of 10 μM. As a negative control, the CHO-K1 cell strain used to prepare the HA-ph01207#10-6 cell strain as a host was used. Since the CHO-K1 cell strain was not transfected with the ph01207-expressing vector, the ph01207 gene product was not expressed.
Changes in the intracellular calcium (Ca^2+) concentration induced by CCK-8S were measured by a method similar to the method described in Example 5 using the 7tmHR stably-expressing strain and the hk01941 stably-expressing strain prepared in Example 7. As a control, a host cell not transfected with the 7tmHR-expressing vector or the hk01941-expressing vector was also used.
Cells were seeded in a 96-well plate (a plate with a black wall and a transparent bottom) at a cell count of 3×10^4/100 μL of medium/well and cultured overnight at 37° C. in a 5% CO2 incubator. On the following day, 50 μL of the medium was removed from each well, […] of a loading buffer was added to each well, and the mixture was reacted at room temperature for 1 h, so that a fluorescent dye contained in the loading buffer was taken up into the cell. The loading buffer was prepared by a method similar to the method described in Example 5. After reaction, changes over time in the fluorescence intensity in each well after addition of CCK-8S were measured using the FLEX station (Molecular Device). CCK-8S was used at a final concentration of 10 pM to 1 μM. Furthermore, as a positive control of the assay, A23187 was used at a final concentration of 20 μM.
Cells were seeded in a 96-well plate (a plate with a black wall and a transparent bottom) at a cell count of 3×10^4/100 μL of medium/well and cultured overnight at 37° C. in a 5% CO2 incubator. […]

[2] = biological target: T1, protein encoded by ph01207 (Homo sapiens, UniProt O60241, DEL308-362); assay: Changes in intracellular Ca2+ concentration in HA-ph01207#10-6 cell strain (CHO-K1 stably expressing ph01207); assay type: cell-based; conditions: peptide at final concentration 1 nM
T1 construct: expressed in transfected cells; host or cells: CHO-K1 (HA-ph01207#10-6, FERM BP-10101), T8HA-attR/pCINeo
T1 sequence (O60241 with tags, fused parts or gaps DEL308-362): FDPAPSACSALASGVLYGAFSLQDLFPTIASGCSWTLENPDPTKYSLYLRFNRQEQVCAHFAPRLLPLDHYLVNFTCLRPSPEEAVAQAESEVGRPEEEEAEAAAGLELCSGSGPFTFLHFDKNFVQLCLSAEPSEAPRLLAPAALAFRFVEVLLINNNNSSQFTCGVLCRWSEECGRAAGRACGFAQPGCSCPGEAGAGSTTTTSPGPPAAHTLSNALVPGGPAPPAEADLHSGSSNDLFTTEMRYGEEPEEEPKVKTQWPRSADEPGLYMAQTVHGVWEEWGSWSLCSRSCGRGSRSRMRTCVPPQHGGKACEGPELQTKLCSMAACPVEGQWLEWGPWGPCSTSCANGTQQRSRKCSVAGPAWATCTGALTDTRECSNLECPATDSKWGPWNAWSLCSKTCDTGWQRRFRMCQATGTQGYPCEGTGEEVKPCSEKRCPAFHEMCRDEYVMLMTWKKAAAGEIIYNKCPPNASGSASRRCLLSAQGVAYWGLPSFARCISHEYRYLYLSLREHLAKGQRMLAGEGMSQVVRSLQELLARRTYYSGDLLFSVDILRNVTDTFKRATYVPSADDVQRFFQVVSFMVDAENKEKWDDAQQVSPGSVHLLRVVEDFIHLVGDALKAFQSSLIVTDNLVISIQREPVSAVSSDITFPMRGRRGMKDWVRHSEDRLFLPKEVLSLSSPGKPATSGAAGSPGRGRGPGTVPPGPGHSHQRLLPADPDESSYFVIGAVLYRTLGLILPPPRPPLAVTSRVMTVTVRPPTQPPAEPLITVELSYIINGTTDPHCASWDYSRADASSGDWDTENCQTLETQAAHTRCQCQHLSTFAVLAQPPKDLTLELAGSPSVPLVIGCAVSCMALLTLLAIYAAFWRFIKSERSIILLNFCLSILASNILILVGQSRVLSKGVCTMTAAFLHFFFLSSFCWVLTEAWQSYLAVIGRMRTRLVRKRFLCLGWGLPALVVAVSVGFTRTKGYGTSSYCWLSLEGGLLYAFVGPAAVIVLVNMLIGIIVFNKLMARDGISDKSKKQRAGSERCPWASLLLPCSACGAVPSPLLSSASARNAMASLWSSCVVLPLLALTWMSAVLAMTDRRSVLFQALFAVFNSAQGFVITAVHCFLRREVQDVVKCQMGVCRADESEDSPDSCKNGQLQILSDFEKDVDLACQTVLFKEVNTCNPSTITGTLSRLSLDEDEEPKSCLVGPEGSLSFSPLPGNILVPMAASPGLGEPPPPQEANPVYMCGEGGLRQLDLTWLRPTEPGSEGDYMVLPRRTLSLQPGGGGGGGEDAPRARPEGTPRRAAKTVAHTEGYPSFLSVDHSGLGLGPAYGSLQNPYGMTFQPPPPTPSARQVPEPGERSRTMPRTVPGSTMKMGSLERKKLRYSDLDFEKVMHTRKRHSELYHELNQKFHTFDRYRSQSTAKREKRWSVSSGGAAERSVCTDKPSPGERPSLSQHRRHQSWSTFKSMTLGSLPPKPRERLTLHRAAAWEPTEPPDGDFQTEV
Description: Changes in the intracellular calcium (Ca^2+) concentration induced by CCK-8S (SEQ ID NO: 14), CCK-8NS, or CCK-4 were measured using the cell strains expressing ph01207 prepared in Example 2. The cell strains prepared in Example 2 were eight strains that expressed the protein encoded by ph01207 as FLAG-tag fusion proteins and four strains that expressed the protein encoded by ph01207 as HA-tag fusion proteins. Of these, the HA-ph01207#10-6 cell strain, a strain obtained by cloning one of the cell strains that stably expressed the protein encoded by ph01207 as HA-tag fusion proteins, was used in this example. CCK-8NS was a CCK octapeptide having the same amino acid sequence as that of CCK-8S (SEQ ID NO: 14), but a region from the C terminus to the seventh tyrosine residue was not sulfated. CCK-4 was a tetrapeptide comprising residues from the C terminus to the fourth amino acid of CCK-8S (SEQ ID NO: 14).
as §1, with “CCK-8S (SEQ ID NO: 14), CCK-8NS, and CCK-4 were diluted in phosphate-buffered physiological saline (PBS) to prepare 5 nM solutions, and 25 μL each was added (final concentration 1 nM) to perform measurement. As a positive control for including an increase in the intracellular Ca^2+ concentration, A23187 (Calbiochem) was used at a final concentration of 10 μM. As a negative control, the CHO-K1 cell strain used to prepare the HA-ph01207#10-6 cell strain as a host was used. Since the CHO-K1 cell strain was not transfected with the ph01207-expressing vector, the ph01207 gene product was not expressed.” left out

| Substance | Change in intracellular Ca2+ concentration (fluorescence intensity) [1] | Change in intracellular Ca2+ concentration (fluorescence intensity) [2] |
| --- | --- | --- |
| CCK-4: tetrapeptide comprising residues from the C terminus to the fourth amino acid of CCK-8S | not increased | did not increase |
| CCK-8 nonsulfated form [CCK-8NS] | not increased | did not increase |
